Measurements from the NIST ThermoML archive (doi:10.1016/j.fluid.2015.05.009).
Numbers after ± are expanded uncertainties.

What was measured:
[1] = for viscosity / mass density: 101.33 kPa, Liquid; for viscosity: Concentric cylinders viscometry; for mass density: Vibrating tube method; for surface tension liquid-gas: Pendant drop shape
[2] = refractive index (Na D-line) (dimensionless); conditions: 101.33 kPa, Liquid, Standard Abbe refractometry

CC(C)C[P+](C)(CC(C)C)CC(C)C.Cc1ccc(S(=O)(=O)[O-])cc1 [triisobutylmethylphosphonium p-toluenesulfonate]
Conditions	mass density, [1] [kg/m3]	refractive index, [2]	surface tension liquid-gas, [1] [mN/m]	viscosity, [1] [mPa·s]
283.15 K	1082.4 ± 1	1.52489 ± 0.00051	–	21829 ± 1800
288.15 K	1079.3 ± 1	1.52338 ± 0.00051	–	11305 ± 830
293.15 K	1076.2 ± 1	1.5217 ± 0.00051	–	6231.9 ± 410
293.2 K	–	–	38.1 ± 0.5	–
298.15 K	1073.2 ± 1	1.5203 ± 0.00051	–	3612.4 ± 210
298.2 K	–	–	37.3 ± 0.5	–
303.15 K	1070.1 ± 1	1.51828 ± 0.00051	–	2199.9 ± 110
303.2 K	–	–	36.6 ± 0.5	–
308.15 K	1067 ± 1	1.51635 ± 0.00051	–	1397.3 ± 64
313.1 K	–	–	35.5 ± 0.5	–
313.15 K	1064 ± 1	1.51433 ± 0.00051	–	917.9 ± 37
318.15 K	1060.9 ± 1	1.51233 ± 0.00051	–	623.7 ± 22
323.1 K	–	–	35 ± 0.5	–
323.15 K	1057.7 ± 1	1.51055 ± 0.00051	–	436.2 ± 14
328.15 K	1054.7 ± 1	1.50872 ± 0.00051	–	313.1 ± 8.4
333.1 K	–	–	34.3 ± 0.5	–
333.15 K	1051.8 ± 1	1.50698 ± 0.00051	–	230.1 ± 5.3
338.15 K	1048.8 ± 1	1.50537 ± 0.00051	–	172.7 ± 3.4
343.15 K	1045.9 ± 1	1.50391 ± 0.00051	–	132.1 ± 2.2
348.15 K	1043.1 ± 1	1.50252 ± 0.00051	–	102.8 ± 1.5
353.15 K	1040.2 ± 1	1.50124 ± 0.00051	–	81.3 ± 1

CCCCCCCC[P+](CCCCCCCC)(CCCCCCCC)CCCCCCCC.[Br-] [tetraoctylphosphonium bromide]
Conditions	mass density, [1] [kg/m3]	refractive index, [2]	surface tension liquid-gas, [1] [mN/m]	viscosity, [1] [mPa·s]
318.1 K	–	–	27.4 ± 0.4	–
318.15 K	945 ± 0.9	1.48262 ± 0.00051	–	376.5 ± 11
323.1 K	–	–	27.1 ± 0.4	–
323.15 K	942 ± 0.9	1.48092 ± 0.00051	–	289.9 ± 7.5
328.15 K	938.9 ± 0.9	1.47916 ± 0.00051	–	226.4 ± 5.2
333.1 K	–	–	26.6 ± 0.4	–
333.15 K	935.9 ± 0.9	1.47699 ± 0.00051	–	178.7 ± 3.6
338.15 K	932.9 ± 0.9	1.47523 ± 0.00051	–	142.1 ± 2.5
343.1 K	–	–	26 ± 0.4	–
343.15 K	929.8 ± 0.9	1.47354 ± 0.00051	–	114.4 ± 1.7
348.15 K	926.8 ± 0.9	1.47195 ± 0.00051	–	93.4 ± 1.2
353.15 K	923.7 ± 0.8	1.47035 ± 0.00051	–	76.8 ± 0.9

CCCC[P+](CC)(CCCC)CCCC.CCOP(=O)([O-])OCC [tributylethylphosphonium diethylphosphate]
Conditions	mass density, [1] [kg/m3]	refractive index, [2]	surface tension liquid-gas, [1] [mN/m]	viscosity, [1] [mPa·s]
283.15 K	1021.5 ± 0.9	1.47176 ± 0.00051	–	1018.4 ± 43
288.15 K	1018 ± 0.9	1.46996 ± 0.00051	–	669.5 ± 24
293.15 K	1014.4 ± 0.9	1.46809 ± 0.00051	–	466.4 ± 15
293.2 K	–	–	31.4 ± 0.5	–
298.15 K	1010.9 ± 0.9	1.46618 ± 0.00051	–	316.8 ± 8.6
298.2 K	–	–	30.5 ± 0.4	–
303.15 K	1007.5 ± 0.9	1.46474 ± 0.00051	–	226.7 ± 5.2
303.2 K	–	–	29.8 ± 0.4	–
308.15 K	1004.1 ± 0.9	1.46308 ± 0.00051	–	166 ± 3.2
313.1 K	–	–	29.2 ± 0.4	–
313.15 K	1000.7 ± 0.9	1.4611 ± 0.00051	–	124.7 ± 2
318.15 K	997.6 ± 0.9	1.45923 ± 0.00051	–	94.6 ± 1.3
323.1 K	–	–	28.5 ± 0.4	–
323.15 K	994.3 ± 0.9	1.45738 ± 0.00051	–	73.4 ± 0.8
328.15 K	990.9 ± 0.9	1.45563 ± 0.00051	–	57.9 ± 0.6
333.1 K	–	–	27.5 ± 0.4	–
333.15 K	987.6 ± 0.9	1.45385 ± 0.00051	–	46.4 ± 0.5
338.15 K	984.3 ± 0.9	1.45212 ± 0.00051	–	37.5 ± 0.4
343.1 K	–	–	31.4 ± 0.5	–
343.15 K	980.9 ± 0.9	1.45045 ± 0.00051	–	30.8 ± 0.3
348.15 K	977.6 ± 0.9	1.4488 ± 0.00051	–	25.6 ± 0.3
353.15 K	974.3 ± 0.9	1.44718 ± 0.00051	–	21.6 ± 0.2

CCCC[P+](C)(CCCC)CCCC.COS(=O)(=O)[O-] [tributylmethylphosphonium methyl sulfate]
Conditions	mass density, [1] [kg/m3]	refractive index, [2]	surface tension liquid-gas, [1] [mN/m]	viscosity, [1] [mPa·s]
283.15 K	1076.5 ± 1	1.48038 ± 0.00051	–	6214.1 ± 410
288.15 K	1073.4 ± 1	1.47891 ± 0.00051	–	3840.1 ± 230
293.15 K	1070.3 ± 1	1.47742 ± 0.00051	–	2476.4 ± 130
293.2 K	–	–	35.5 ± 0.5	–
298.15 K	1067.2 ± 1	1.47632 ± 0.00051	–	1629.2 ± 78
298.2 K	–	–	34.7 ± 0.5	–
303.15 K	1064.1 ± 1	1.47427 ± 0.00051	–	1109.1 ± 48
303.2 K	–	–	34.1 ± 0.5	–
308.15 K	1061 ± 1	1.47232 ± 0.00051	–	774.5 ± 30
313.1 K	–	–	33.5 ± 0.5	–
313.15 K	1057.9 ± 1	1.47072 ± 0.00051	–	555 ± 19
318.15 K	1054.8 ± 1	1.46912 ± 0.00051	–	403.6 ± 12
323.1 K	–	–	32.9 ± 0.5	–
323.15 K	1051.8 ± 1	1.46758 ± 0.00051	–	300 ± 7.9
328.15 K	1048.9 ± 1	1.46603 ± 0.00051	–	227 ± 5.2
333.1 K	–	–	32.2 ± 0.5	–
333.15 K	1045.9 ± 1	1.46457 ± 0.00051	–	174.7 ± 3.5
338.15 K	1043 ± 1	1.46318 ± 0.00051	–	136.3 ± 2.3
343.15 K	1040.1 ± 1	1.46185 ± 0.00051	–	107.9 ± 1.6
348.15 K	1037.3 ± 1	1.46067 ± 0.00051	–	86.4 ± 1.1
353.15 K	1034.4 ± 1	1.45965 ± 0.00051	–	70 ± 0.8
